Data as given in ChEMBL document CHEMBL1142784, “Discovery and in vitro evaluation of potent kinase inhibitors: Pyrido[1',2':1,5]pyrazolo[3,4-d]pyrimidines” (Bioorg Med Chem Lett, 2005).

Assays:
[1] = biological target: Glycogen synthase kinase-3 (Homo sapiens, UniProt P49840+P49841); assay: Inhibitory concentration against GSK3-beta by using [gamma-33P]-ATP as radioligand expressed in Escherichia coli in pH 7.2 for 19 min at room temperature
[2] = biological target: Vascular endothelial growth factor receptor (Homo sapiens, UniProt P17948+P35916+P35968); assay: Inhibitory concentration against VEGFR(10 nM) by using homogeneous time-resolved fluorescence detection in pH 7.5
[3] = biological target: Receptor tyrosine-protein kinase erbB-2 (Homo sapiens, UniProt P04626); assay: Inhibitory concentration against ErbB-2 protein tyrosine kinase by using [gamma-33P]-ATP as radioligand in pH 7.5
Chain of Receptor tyrosine-protein kinase erbB-2 (P04626 whole entry): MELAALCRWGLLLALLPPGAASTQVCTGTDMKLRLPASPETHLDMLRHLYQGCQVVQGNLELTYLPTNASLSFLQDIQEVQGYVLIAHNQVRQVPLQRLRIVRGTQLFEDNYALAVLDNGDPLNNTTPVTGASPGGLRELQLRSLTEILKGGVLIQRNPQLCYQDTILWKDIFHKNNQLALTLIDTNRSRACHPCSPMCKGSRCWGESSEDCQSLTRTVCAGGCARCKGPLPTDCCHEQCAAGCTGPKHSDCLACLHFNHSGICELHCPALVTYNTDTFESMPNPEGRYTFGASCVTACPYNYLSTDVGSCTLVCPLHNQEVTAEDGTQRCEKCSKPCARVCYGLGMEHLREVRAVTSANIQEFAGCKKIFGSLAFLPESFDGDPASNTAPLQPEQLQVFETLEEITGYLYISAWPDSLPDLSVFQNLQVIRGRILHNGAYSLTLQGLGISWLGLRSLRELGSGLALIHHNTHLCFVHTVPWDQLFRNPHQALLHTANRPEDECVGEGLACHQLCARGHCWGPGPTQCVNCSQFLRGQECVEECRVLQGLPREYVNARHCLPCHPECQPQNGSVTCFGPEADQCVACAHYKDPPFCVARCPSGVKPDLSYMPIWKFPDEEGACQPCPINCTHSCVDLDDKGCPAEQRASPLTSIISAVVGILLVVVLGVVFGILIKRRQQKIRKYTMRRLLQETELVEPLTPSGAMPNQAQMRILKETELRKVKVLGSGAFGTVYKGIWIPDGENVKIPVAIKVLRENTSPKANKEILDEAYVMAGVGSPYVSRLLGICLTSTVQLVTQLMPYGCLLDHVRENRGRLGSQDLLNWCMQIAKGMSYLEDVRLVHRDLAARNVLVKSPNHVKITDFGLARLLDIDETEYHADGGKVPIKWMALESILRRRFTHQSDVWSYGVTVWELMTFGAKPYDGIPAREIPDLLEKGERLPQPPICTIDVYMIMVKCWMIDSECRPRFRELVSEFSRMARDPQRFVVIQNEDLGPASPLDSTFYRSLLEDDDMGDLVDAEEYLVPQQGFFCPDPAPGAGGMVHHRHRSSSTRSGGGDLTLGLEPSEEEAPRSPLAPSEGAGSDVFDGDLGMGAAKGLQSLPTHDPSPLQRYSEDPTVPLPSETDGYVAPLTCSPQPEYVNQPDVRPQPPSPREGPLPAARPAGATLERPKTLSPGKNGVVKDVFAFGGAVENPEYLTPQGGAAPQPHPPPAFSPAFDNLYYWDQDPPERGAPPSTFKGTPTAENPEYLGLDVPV

[4] = biological target: Epidermal growth factor receptor (Homo sapiens, UniProt P00533); assay: Inhibitory concentration against EGFR by using [gamma-33P]-ATP as radioligand in pH 7.5
Chain of Epidermal growth factor receptor (P00533 whole entry): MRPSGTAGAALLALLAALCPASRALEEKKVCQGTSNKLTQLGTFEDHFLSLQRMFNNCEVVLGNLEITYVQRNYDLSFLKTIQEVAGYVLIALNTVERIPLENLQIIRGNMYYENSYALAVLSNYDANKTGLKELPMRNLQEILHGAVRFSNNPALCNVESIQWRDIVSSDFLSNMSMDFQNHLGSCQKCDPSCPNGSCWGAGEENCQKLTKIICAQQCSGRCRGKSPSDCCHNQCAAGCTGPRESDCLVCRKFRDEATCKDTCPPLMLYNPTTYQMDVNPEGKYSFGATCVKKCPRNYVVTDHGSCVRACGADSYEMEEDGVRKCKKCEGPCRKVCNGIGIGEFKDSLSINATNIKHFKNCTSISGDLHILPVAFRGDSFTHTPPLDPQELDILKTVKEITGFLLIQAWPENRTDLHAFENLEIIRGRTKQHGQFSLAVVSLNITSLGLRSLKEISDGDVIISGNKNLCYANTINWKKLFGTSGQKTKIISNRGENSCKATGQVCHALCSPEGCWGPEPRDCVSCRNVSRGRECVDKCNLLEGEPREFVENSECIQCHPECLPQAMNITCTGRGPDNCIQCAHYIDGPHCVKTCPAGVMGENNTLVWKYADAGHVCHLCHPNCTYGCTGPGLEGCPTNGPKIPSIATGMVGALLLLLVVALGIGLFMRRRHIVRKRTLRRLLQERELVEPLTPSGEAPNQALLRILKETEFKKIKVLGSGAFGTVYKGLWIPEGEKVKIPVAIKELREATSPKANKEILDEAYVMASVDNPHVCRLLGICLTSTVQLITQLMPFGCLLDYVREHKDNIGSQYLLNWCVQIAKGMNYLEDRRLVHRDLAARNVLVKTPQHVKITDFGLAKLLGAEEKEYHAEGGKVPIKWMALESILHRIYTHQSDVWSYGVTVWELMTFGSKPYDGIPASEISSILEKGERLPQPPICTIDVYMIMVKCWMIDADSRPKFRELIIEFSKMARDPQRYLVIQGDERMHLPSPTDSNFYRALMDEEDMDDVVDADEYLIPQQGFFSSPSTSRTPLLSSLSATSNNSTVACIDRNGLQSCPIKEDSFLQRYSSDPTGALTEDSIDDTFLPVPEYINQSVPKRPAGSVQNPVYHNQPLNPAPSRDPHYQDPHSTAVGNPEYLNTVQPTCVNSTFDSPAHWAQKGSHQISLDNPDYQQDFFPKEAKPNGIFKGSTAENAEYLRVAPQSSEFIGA

IC50 [1] [µM] | IC50 [2] [µM] | IC50 [3] [nM] | IC50 [4] [µM] | Structure (SMILES)
0.158 | 0.251 | – | – | O=C(Nc1cccc(C(F)(F)F)c1)Nc1ncnc2nn3ccccc3c12
1 | 3.98 | – | – | O=C(Nc1ccc(Br)cc1)Nc1ncnc2nn3ccccc3c12
0.126 | 0.2 | – | – | N#Cc1cccc(NC(=O)Nc2ncnc3nn4ccccc4c23)c1
1.58 | 3.98 | – | – | O=C(Nc1ccc(C(F)(F)F)cc1)Nc1ncnc2nn3ccccc3c12
0.316 | > 10 | – | – | O=C(Nc1cccc([N+](=O)[O-])c1)Nc1ncnc2nn3ccccc3c12
– | – | 200 | 0.05 | Clc1cc(Nc2ncnc3nn4ccccc4c23)ccc1OCc1ccccc1
> 10 | 0.631 | – | – | O=C(Nc1ccc(F)cc1)Nc1ncnc2nn3ccccc3c12
– | – | 1580 | 5.01 | c1ccc(Cc2nc3ccc(Nc4ncnc5nn6ccccc6c45)cc3[nH]2)cc1
– | – | > 10000 | > 10 | Nc1ncnc2nn3ccccc3c12
